Here are results for two molecules from US7642258B2 (Allergan, Inc., priority 2002, dated 2010).

Where two headings read alike, the source gives them in different places.

Data set [1] has as its system patients with glaucoma or ocular hypertension. The data set is described as follows: Clinical study: intraocular pressure (IOP) lowering, multicenter double-masked randomized parallel-group. The class given is in vivo. Conditions: range over week 2, week 6 and month 3 (hours 0, 2, 7, 9).
Description: IOP (hours 0, 2, 7, and 9), patient satisfaction questionnaire, patient comfort of study medication questionnaire, pharmacoeconomic evaluation by investigator
All data were summarized with descriptive statistics, frequency tables, and/or data listings. Safety analyses included all patients who received at least 1 dose of study medication. Analyses were performed for the primary efficacy variable IOP using the intent-to-treat (ITT) population with last observation carried forward (LOCF), and the per protocol population with observed cases.
Continuous variables (eg, IOP) were analyzed using analysis of variance (ANOVA). Within-group changes from baseline for continuous variables were analyzed using paired t-tests.
A 2-way ANOVA model with factors for treatment and investigator was used for the analysis of IOP. Comparisons were made between the Combination and each of the 2 monotherapies in a pairwise fashion using contrasts from the ANOVA model, with the same error term. A separate ANOVA model was employed at each hour/visit measurement of IOP. […] Point estimates of the mean treatment differences, as well as 2-sided 95% confidence intervals (CI) of the difference, were provided at each timepoint.
Data set [2] in a line: Clinical study: quantitation of plasma brimonidine and timolol concentrations. In kind it is in vivo, patients. Conditions: for concentration at 1 h: human, plasma, other: ophthalmic solution, 1 hour postdose, read-out: mean±SD plasma timolol concentration.
The subject of data set [3] is patients with glaucoma or ocular hypertension. Put plainly: Clinical study: safety (adverse events, heart rate, blood pressure, visual acuity). The class given is in vivo.

As to `Brc1c(N=C2NCCN2)ccc2nccnc12.O=C(O)C(O)C(O)C(=O)O` [Brimonidine, 5-Bromo-6-(2-imidazolidinylideneamino)quinoxaline L-tartrate], in data set [1], the “Mean changes from baseline diurnal IOP” value was −3.5 to −5.7 mm Hg and the “Mean values of diurnal IOP” value was 17.4 to 21.5 mm Hg.
Regarding `CC(C)(C)NC[C@H](O)COc1nsnc1N1CCOCC1.O=C(O)/C=C\C(=O)O` [Timolol], in data set [2] (month 3), the concentration at 1 h was determined as 0.873 ± 0.516 ng/mL and the “plasma timolol concentration in males lower than in females” value is on record as 39%. In data set [2] (week 2), the concentration at 1 h was 0.95 ± 0.709 ng/mL and the “plasma timolol concentration in males lower than in females” value is 45%. Further, in data set [1], the “Mean changes from baseline diurnal IOP” value was −4.5 to −6.4 mm Hg and the “Mean values of diurnal IOP” value is reported as 17.5 to 18.9 mm Hg. In data set [3] (% of patients), the “Serious adverse events reported” value was determined as 2.0% and the “discontinuation of patients due to adverse events” value is 3.0%. Also, in data set [3] (adverse event through month 3), the “allergic conjunctivitis, % of patients” value is “(0.0%)”; the “allergic conjunctivitis, number of patients” value came to 0; the “asthenia, % of patients” value is recorded as “(0.5%)”; the “asthenia, number of patients” value was 1. In addition, in data set [3] (adverse event through month 3), the “burning sensation in eye, % of patients” value is listed as “(12.7%)”; the “burning sensation in eye, number of patients” value is given as 25; the “conjunctival folliculosis, % of patients” value is reported as “(0.5%)”; the “conjunctival folliculosis, number of patients” value turned out to be 1. Besides, in data set [3] (adverse event through month 3), the “conjunctival hyperemia, % of patients” value is listed as “(5.6%)”; the “conjunctival hyperemia, number of patients” value is listed as 11; the “epiphora, % of patients” value is given as “(1.5%)”; the “epiphora, number of patients” value amounted to 3. Moreover, in data set [3] (adverse event through month 3), the “eye pruritus, % of patients” value is reported as “(1.5%)”; the “eye pruritus, number of patients” value is listed as 3; the “foreign body sensation, % of patients” value was “(2.5%)”; the “foreign body sensation, number of patients” value is on record as 5. Besides, in data set [3] (adverse event through month 3), the “infection (body as a whole), % of patients” value is “(4.1%)”; the “infection (body as a whole), number of patients” value came to 8; the “oral dryness, % of patients” value is on record as “(0.5%)”; the “oral dryness, number of patients” value is recorded as 1. In data set [3] (adverse event through month 3), the “somnolence, % of patients” value was “(0.0%)”; the “somnolence, number of patients” value came out at 0; the “stinging sensation eye, % of patients” value is on record as “(5.6%)”; the “stinging sensation eye, number of patients” value is 11. In data set [3] (adverse event through month 3), the “visual disturbance, % of patients” value is “(1.5%)” and the “visual disturbance, number of patients” value was 3. For the same molecule, in data set [3] (through month 3), the “incidence of eye discharge” value worked out at 0% and the “patients who experienced one or more adverse events, regardless of causality” value was determined as 50.8%.
